In PubChem BioAssay (NCI):
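A five-concentration, 48-hour dose response in 96-well plates underlies each endpoint, interpolated linearly between surrounding concentrations. Abbreviation: GI50, concentration required for 50% inhibition of growth. TGI is the concentration that stops growth completely.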

Legend:
Test in all cases: inhibition of tumour cell growth, NCI panel, 48 h
[1] = test system: HS 578T breast
[2] = test system: MDA-MB-231 breast
[3] = test system: SF-539 CNS
[4] = test system: TK-10 renal
[5] = test system: UACC-62 melanoma
[6] = test system: OVCAR-3 ovarian
[7] = test system: MOLT-4 leukemia
[8] = test system: NCI-H23 lung
[9] = test system: SNB-19 CNS
[10] = test system: SK-MEL-5 melanoma
[11] = test system: SK-MEL-2 melanoma
[12] = test system: SF-295 CNS
[13] = test system: HT29 colon
[14] = test system: A498 renal
[15] = test system: HOP-92 NSCLC
[16] = test system: PC-3 prostate
[17] = test system: OVCAR-8 ovarian
[18] = test system: NCI-H226 lung
[19] = test system: OVCAR-5 ovarian
[20] = test system: HOP-62 NSCLC
[21] = test system: HCT-15 colon
[22] = test system: 786-0 renal
[23] = test system: ACHN renal
[24] = test system: LOX IMVI melanoma
[25] = test system: SN12C renal
[26] = test system: UO-31 renal
[27] = test system: CCRF-CEM leukemia
[28] = test system: UACC-257 melanoma
[29] = test system: M14 melanoma
[30] = test system: MCF7 breast
[31] = test system: K-562 leukemia
[32] = test system: RPMI-8226 leukemia
[33] = test system: NCI-H460 lung
[34] = test system: HCC-2998 colon
[35] = test system: SK-MEL-28 melanoma
[36] = test system: NCI/ADR-RES ovarian
[37] = test system: T-47D breast
[38] = test system: EKVX NSCLC
[39] = test system: SW-620 colon
[40] = test system: KM12 colon
[41] = test system: DU-145 prostate
[42] = test system: A549 NSCLC
[43] = test system: BT-549 breast
[44] = test system: U251 CNS
[45] = test system: SR leukemia
[46] = test system: SNB-75 CNS
[47] = test system: NCI-H522 lung
[48] = test system: SK-OV-3 ovarian
[49] = test system: HCT-116 colon
[50] = test system: OVCAR-4 ovarian
[51] = test system: SF-268 CNS
[52] = test system: COLO 205 colon
[53] = test system: MDA-MB-435
[54] = test system: CAKI-1 renal
[55] = test system: IGROV1 ovarian
[56] = test system: MALME-3M melanoma
[57] = test system: HL-60(TB) leukemia

Structure (SMILES): CCNCCOc1ccc(/C(=C(/CC)c2ccc(Cl)cc2)c2ccc(OCCCN(C)C)cc2)cc1
- GI50 [1]: 3.26 µM
- TGI [1]: 7.63 µM
- GI50 [2]: 4.06 µM
- TGI [2]: 7.73 µM
- GI50 [3]: 3.97 µM
- TGI [3]: 7.51 µM
- GI50 [4]: 3.99 µM
- TGI [4]: 8.07 µM
- GI50 [5]: 4.48 µM
- TGI [5]: 8.22 µM
- GI50 [6]: 3.46 µM
- TGI [6]: 6.87 µM
- GI50 [7]: 4.56 µM
- TGI [7]: 9.41 µM
- GI50 [8]: 4.31 µM
- TGI [8]: 8.15 µM
- GI50 [9]: 4.45 µM
- TGI [9]: 8.21 µM
- GI50 [10]: 4.51 µM
- TGI [10]: 8.21 µM
- GI50 [11]: 4.13 µM
- TGI [11]: 7.77 µM
- GI50 [12]: 4.44 µM
- TGI [12]: 8.24 µM
- GI50 [13]: 0.98 µM
- TGI [13]: 3.79 µM
- GI50 [14]: 3.38 µM
- TGI [14]: 6.98 µM
- GI50 [15]: 0.818 µM
- TGI [15]: 4.47 µM
- GI50 [16]: 4.01 µM
- TGI [16]: 9.01 µM
- GI50 [17]: 3.91 µM
- TGI [17]: 7.64 µM
- GI50 [18]: 3.74 µM
- TGI [18]: 7.59 µM
- GI50 [19]: 4.07 µM
- TGI [19]: 7.67 µM
- GI50 [20]: 4.24 µM
- TGI [20]: 8.69 µM
- GI50 [21]: 2.19 µM
- TGI [21]: 5.54 µM
- GI50 [22]: 3.57 µM
- TGI [22]: 7.44 µM
- GI50 [23]: 4.41 µM
- TGI [23]: 8.02 µM
- GI50 [24]: 3.72 µM
- TGI [24]: 7.37 µM
- GI50 [25]: 3.84 µM
- TGI [25]: 7.42 µM
- GI50 [26]: 3.32 µM
- TGI [26]: 6.68 µM
- GI50 [27]: 5.08 µM
- TGI [27]: 11.4 µM
- GI50 [28]: 4.04 µM
- TGI [28]: 7.83 µM
- GI50 [29]: 4.3 µM
- TGI [29]: 8.31 µM
- GI50 [30]: 1.3 µM
- TGI [30]: 4.94 µM
- GI50 [31]: 0.933 µM
- TGI [31]: 2.43 µM
- GI50 [32]: 4.98 µM
- TGI [32]: 13.5 µM
- GI50 [33]: 3.9 µM
- TGI [33]: 7.6 µM
- GI50 [34]: 3.93 µM
- TGI [34]: 7.72 µM
- GI50 [35]: 4.16 µM
- TGI [35]: 7.78 µM
- GI50 [36]: 4.19 µM
- TGI [36]: 8.08 µM
- GI50 [37]: 3.05 µM
- TGI [37]: 7.55 µM
- GI50 [38]: 4.32 µM
- TGI [38]: 8.1 µM
- GI50 [39]: 1.75 µM
- TGI [39]: 5.24 µM
- GI50 [40]: 3.94 µM
- TGI [40]: 7.59 µM
- GI50 [41]: 3.99 µM
- TGI [41]: 7.5 µM
- GI50 [42]: 3.33 µM
- TGI [42]: 7.15 µM
- GI50 [43]: 3.45 µM
- TGI [43]: 7.16 µM
- GI50 [44]: 3.17 µM
- TGI [44]: 6.61 µM
- GI50 [45]: 2.98 µM
- TGI [45]: 8.52 µM
- GI50 [46]: 3.68 µM
- TGI [46]: 7.45 µM
- GI50 [47]: 4 µM
- TGI [47]: 8.04 µM
- GI50 [48]: 4.36 µM
- TGI [48]: 8.34 µM
- GI50 [49]: 2.78 µM
- TGI [49]: 6.48 µM
- GI50 [50]: 3.83 µM
- TGI [50]: 8.07 µM
- GI50 [51]: 3.89 µM
- TGI [51]: 7.92 µM
- GI50 [52]: 3.13 µM
- TGI [52]: 7.84 µM
- GI50 [53]: 3.77 µM
- TGI [53]: 7.34 µM
- GI50 [54]: 4.39 µM
- TGI [54]: 8.05 µM
- GI50 [55]: 4.17 µM
- TGI [55]: 7.85 µM
- GI50 [56]: 3.95 µM
- TGI [56]: 7.57 µM
- GI50 [57]: 5.83 µM
- TGI [57]: 11.1 µM
